Measurements as given in patent US8969303B2, “Tocotrienol esters” (First Tech International Limited, priority 2010, dated 2015).

Test system: +SA mammary epithelial cells
Experiment: Antiproliferative MTT assay on +SA mammary epithelial cells
Assay type: cell-based, mouse
Settings: for IC50: malignant mice +SA mammary cells, 24 hour treatment, MTT; for antiproliferative activity: +SA mammary cells, in words
Excerpt: +SA mammary epithelial cell lines were serially passaged at subconfluent cell density. The +SA cell line was derived from an adenocarcinoma that developed spontaneously in a BALB/c female mouse. That cell line is discussed in more detail in Anderson, L. W., Danielson, K. G., Hosick, H. L. Eur. J. Cancer Clin. Oncol. 1981, 17, 1001-1008, Danielson, K G., Anderson, L. W., Hosick, H. L. Cancer Res. 1980, 40, 1812-1819.31, and Anderson, L. W., Danielson, K. G., Hosick, H. L. In Vitro. 1979, 15, 841-843. Cell culture conditions were similar to those described in detail in Shah, S. J., Gapor, A., Sylvester, P. W. Nutr. Cancer. 2003, 45, 236-246, Shah, S. J., Sylvester, P. W. Biochem. Cell. Biol. 2005, 83, 86-95, Wali, V. B., Sylvester, P. W. Lipids, 2007, 42, 1113-1123, and Wali, V. B., Bachawal, S. V., Sylvester, P. W. Exp. Biol. Med. (Maywood) 2009, 234, 639-650. Briefly, +SA cells were maintained in serum-free defined medium consisting of Dulbecco's modified Eagle's medium (DMEM)/F12 containing 5 mg/ml bovine serum albumin (BSA), […], 100 U/ml soybean trypsin inhibitor, 100 U/ml penicillin, 0.1 mg/ml streptomycin, […], and 10 ng/ml epidermal growth factor. For subculturing, cells were rinsed twice with sterile Ca^2+ and Mg^2+-free phosphate buffered saline (PBS) and incubated in 0.05% trypsin containing 0.025% EDTA in PBS for 5 minutes at 37° C. The released cells were centrifuged, resuspended in serum-free defined media and counted using a hemocytometer. A stock solution of the Compounds was prepared in DMSO. Once dissolved, this solution was added to a small volume of sterile 10% BSA in water and incubated overnight at 37° C. This solution conjugated to BSA was used to prepare various concentrations (0-40 μM) of tocotrienol analogs. DMSO was added to all treatment media such that the final DMSO concentration was the same in all treatment groups within a given experiment and was always less than 0.1%. For cytotoxicity studies, cells were seeded at a density of 5×10^4 cells/well (6 wells/group) in 24-well culture plates and allowed to grow in serum-free control defined media. After a 3 day incubation period (approximately 70% confluency), cells were divided equally into various treatment groups and exposed to their respective treatments for a 24 hour incubation period. Following the 24 hour treatment period, cell viability was measured using the MTT assay. All materials were purchased from Sigma Chemical Company (St. Louis, Mo.) unless otherwise stated.
+SA mammary epithelial cell viable number was determined by the 3-(4,5-dimethylthiazol-2-yl)-2,5-diphenyl tetrazolium bromide (MTT) colorimetric assay. On the day of assay, treatment medium was replaced with fresh growth medium containing 0.42 mg/ml MTT, and the cells in 24-well plates were incubated at 37° C. for 4 hours. Afterward, the medium was removed, and the MTT crystals were dissolved in isopropyl alcohol (1 ml/well). The optical density of each sample was read at 570 nm on a microplate reader (SpectraCount, Packard BioScience Company), against a blank prepared from cell-free cultures. The number of cells/well was calculated against a standard curve prepared by plating various concentrations of cells, as determined by hemocytometer, at the start of each experiment.
Differences among the various treatment groups in +SA cell cytotoxic studies were determined by analysis of variance (ANOVA) followed by Dunnett's t-test. The difference of P<0.05 was considered to be statistically significant as compared with vehicle-treated controls. Linear regression analysis of treatment effects on viable cell number in growth and cytotoxicity studies was used to determine the 50% growth inhibition concentration (IC50) for individual treatments.

[1] = Mus musculus, Epithelial cell, 24 h

With `CC(C)=CCC/C(C)=C/CC/C(C)=C/CC[C@]1(C)CCc2cc(OC(=O)c3cc(C(=O)O)ccc3C(=O)O)cc(C)c2O1` [Compound 5, 2-(((R)-2,8-dimethyl-2-((3E,7E)-4,8,12-trimethyltrideca-3,7,11-trienyl)chroman-6-yloxy)-carbonyl)terephthalic acid] as the compound, how does the IC50 [1] read?
The IC50 was 1.5 µM.

Which IC50 [1] does the source give for `CC(C)=CCC/C(C)=C/CC/C(C)=C/CC[C@]1(C)CCc2cc(OC(=O)c3ccc(C(=O)O)cc3C(=O)O)c(C)c(C)c2O1` [Compound 2, 4-(((R)-2,7,8-trimethyl-2-((3E,7E)-4,8,12-trimethyltrideca-3,7,11-trienyl)chroman-6-yloxy)carbonyl)isophthalic acid] here?
The IC50 was 0.62 µM.

Which IC50 [1] does the source give for `CC(=O)Oc1cc(C(=O)Oc2cc3c(c(C)c2C)O[C@](C)(CC/C=C(\C)CC/C=C(\C)CCC=C(C)C)CC3)cc(OC(C)=O)c1OC(C)=O` [Compound 11, 5-(((R)-2,7,8-trimethyl-2-((3E,7E)-4,8,12-trimethyltrideca-3,7,11-trienyl)chroman-6-yloxy)carbonyl)benzene-1,2,3-triyl triacetate] here?
Its IC50 is 1.72 µM.

How did the antiproliferative activity turn out when `CC(=O)Oc1ccc(/C=C/C(=O)Oc2cc3c(c(C)c2C)O[C@](C)(CC/C=C(\C)CC/C=C(\C)CCC=C(C)C)CC3)cc1OC(C)=O` [Compound 12, 4-((E)-3-oxo-3-((R)-2,7,8-trimethyl-2-((3E,7E)-4,8,12-trimethyltrideca-3,7,11-trienyl)chroman-6-yloxy)prop-1-enyl)-1,2-phenylene diacetate] was run?
Its antiproliferative activity is “inactive”.

What about the IC50 [1] of the same compound?
The IC50 was > 40 µM.

Which results are given for `CC(C)=CCC/C(C)=C/CC/C(C)=C/CC[C@]1(C)CCc2cc(OC(=O)CC(C)CC(=O)O)c(C)c(C)c2O1` (stereo partly drawn) [Compound 9, 3-Methyl-5-oxo-5-((R)-2,7,8-trimethyl-2-((3E,7E)-4,8,12-trimethyltrideca-3,7,11-trienyl)chroman-6-yloxy)pentanoic acid]?
antiproliferative activity: inactive; IC50 [1]: 19.2 µM

With `CC(C)=CCC/C(C)=C/CC/C(C)=C/CC[C@]1(C)CCc2cc(OC(=O)c3cc(C(=O)O)ccc3C(=O)O)c(C)c(C)c2O1` [Compound 4, 2-(((R)-2,7,8-trimethyl-2-((3E,7E)-4,8,12-trimethyltrideca-3,7,11-trienyl)chroman-6-yloxy)carbonyl)terephthalic acid] as the compound, how does the IC50 [1] read?
The IC50 was 1.44 µM.

How did the IC50 [1] turn out when `CC(C)=CCC/C(C)=C/CC/C(C)=C/CC[C@]1(C)CCc2cc(OC(=O)/C=C\C(=O)O)c(C)c(C)c2O1` [Compound 7, (Z)-4-oxo-4-((R)-2,7,8-trimethyl-2-((3E,7E)-4,8,12-trimethyltrideca-3,7,11-trienyl)-chroman-6-yloxy)but-2-enoic acid] was run?
Its IC50 is 2.3 µM.

With `CC(C)=CCC/C(C)=C/CC/C(C)=C/CC[C@]1(C)CCc2cc(OC(=O)/C=C\C(=O)O)cc(C)c2O1` [Compound 8, (Z)-4-((R)-2,8-dimethyl-2-((3E,7E)-4,8,12-trimethyltrideca-3,7,11-trienyl)chroman-6-yloxy)-4-oxobut-2-enoic acid] as the compound, how does the IC50 [1] read?
Its IC50 is 0.86 µM.

What about the IC50 of the same compound?
The IC50 was 0.87 µM.
